ChEMBL document CHEMBL1201862, “PubChem BioAssay data set” (2004)
Blank lines part the entries; values can stand above or below the molecule they belong to. The source made the active and inactive calls.

Assays:
[1] = cytotoxicity in HEK-293T NF-kB-Luc cells, dose response, cytotoxicity control for B/T-cell NF-kB inhibitor project, cell-based, uHTS hits (AID 489019); assay type: functional;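 further: IC50 reflects cytotoxicity as loss of cell viability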
[2] = tested on: INS1; experiment: beta cell apoptosis inhibitors, cytokine rescue, dose response, luminescence, retest (AID 449756); assay type: functional, cell-based; details: Rattus norvegicus;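 further: cell death triggered by IL-1 beta plus TNF-alpha plus IFN-gamma mixture; protective hits raise ATP signal compared with cytokine alone wells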
[3] = tested on: Jurkat; experiment: antigen receptor-induced NF-kB inhibitors, dose response, Jurkat, luciferase reporter, luminescence, B- and T-cell (AID 489004); assay type: functional, cell-based; details: Homo sapiens;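 further: NF-kB luciferase reporter Jurkat cells stimulated with PMA plus ionomycin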
[4] = target: COUP transcription factor 2 (Homo sapiens, UniProt P24468); experiment: Luminescence-based cell-based high throughput dose response assay to identify inhibitors of COUP-TFII (NR2F2).; assay type: functional;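 further: HEK293 cells transiently cotransfected with COUP-TFII expression vector and reporter; luciferase reporter luminescence driven by COUP-TFII from the pX2-168 reporter plasmid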
Sequence of COUP transcription factor 2 (P24468 whole entry): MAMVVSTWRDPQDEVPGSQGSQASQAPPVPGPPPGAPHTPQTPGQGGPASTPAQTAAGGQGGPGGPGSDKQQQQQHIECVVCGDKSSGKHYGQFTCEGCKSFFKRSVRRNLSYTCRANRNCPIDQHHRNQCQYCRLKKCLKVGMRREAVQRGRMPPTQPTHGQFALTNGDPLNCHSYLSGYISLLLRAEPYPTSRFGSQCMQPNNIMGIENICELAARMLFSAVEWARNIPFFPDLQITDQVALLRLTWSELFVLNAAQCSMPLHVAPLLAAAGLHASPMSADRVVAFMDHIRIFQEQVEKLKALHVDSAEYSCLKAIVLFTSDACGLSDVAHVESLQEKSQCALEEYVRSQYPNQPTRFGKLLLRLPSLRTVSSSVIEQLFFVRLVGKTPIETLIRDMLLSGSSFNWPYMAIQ

[5] = target: Cytochrome P450 2D6 (Homo sapiens, UniProt P10635);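 further: CYP2D6 member of a cytochrome P450 panel assay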
Sequence of Cytochrome P450 2D6 (P10635 whole entry): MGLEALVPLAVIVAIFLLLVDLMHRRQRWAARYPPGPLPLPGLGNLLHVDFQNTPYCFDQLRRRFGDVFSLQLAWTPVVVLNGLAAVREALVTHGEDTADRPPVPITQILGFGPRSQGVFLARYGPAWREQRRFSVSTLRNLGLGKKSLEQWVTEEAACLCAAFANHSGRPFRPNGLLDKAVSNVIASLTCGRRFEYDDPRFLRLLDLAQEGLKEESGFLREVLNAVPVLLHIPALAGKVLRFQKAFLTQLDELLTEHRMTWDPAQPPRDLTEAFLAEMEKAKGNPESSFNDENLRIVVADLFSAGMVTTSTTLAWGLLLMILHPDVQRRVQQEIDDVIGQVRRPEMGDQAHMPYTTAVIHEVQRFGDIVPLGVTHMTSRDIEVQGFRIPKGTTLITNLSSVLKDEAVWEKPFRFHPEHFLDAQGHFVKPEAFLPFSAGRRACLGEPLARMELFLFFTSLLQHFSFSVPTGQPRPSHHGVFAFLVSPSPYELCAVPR

[6] = target: T1, Cytochrome P450 1A2 (Homo sapiens, UniProt P05177);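 further: PubChem cytochrome P450 panel assay, CYP1A2 panel member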
T1 sequence (P05177 whole entry): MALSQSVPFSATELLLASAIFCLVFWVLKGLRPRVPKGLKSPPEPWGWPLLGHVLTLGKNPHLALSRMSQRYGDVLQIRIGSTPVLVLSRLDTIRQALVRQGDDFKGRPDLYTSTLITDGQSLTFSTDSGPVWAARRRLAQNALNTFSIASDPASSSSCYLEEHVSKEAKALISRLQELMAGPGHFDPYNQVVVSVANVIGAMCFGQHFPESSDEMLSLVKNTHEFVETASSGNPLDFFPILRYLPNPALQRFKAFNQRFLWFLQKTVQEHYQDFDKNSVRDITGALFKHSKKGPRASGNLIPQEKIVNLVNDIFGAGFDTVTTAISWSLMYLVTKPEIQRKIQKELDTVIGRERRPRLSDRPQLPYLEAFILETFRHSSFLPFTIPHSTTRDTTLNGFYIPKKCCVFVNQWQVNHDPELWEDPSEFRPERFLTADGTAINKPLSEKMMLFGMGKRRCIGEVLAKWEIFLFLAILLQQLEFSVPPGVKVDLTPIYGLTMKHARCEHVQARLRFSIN

[7] = target: Cytochrome P450 2C9 (Homo sapiens, UniProt P11712)
Sequence of Cytochrome P450 2C9 (P11712 whole entry): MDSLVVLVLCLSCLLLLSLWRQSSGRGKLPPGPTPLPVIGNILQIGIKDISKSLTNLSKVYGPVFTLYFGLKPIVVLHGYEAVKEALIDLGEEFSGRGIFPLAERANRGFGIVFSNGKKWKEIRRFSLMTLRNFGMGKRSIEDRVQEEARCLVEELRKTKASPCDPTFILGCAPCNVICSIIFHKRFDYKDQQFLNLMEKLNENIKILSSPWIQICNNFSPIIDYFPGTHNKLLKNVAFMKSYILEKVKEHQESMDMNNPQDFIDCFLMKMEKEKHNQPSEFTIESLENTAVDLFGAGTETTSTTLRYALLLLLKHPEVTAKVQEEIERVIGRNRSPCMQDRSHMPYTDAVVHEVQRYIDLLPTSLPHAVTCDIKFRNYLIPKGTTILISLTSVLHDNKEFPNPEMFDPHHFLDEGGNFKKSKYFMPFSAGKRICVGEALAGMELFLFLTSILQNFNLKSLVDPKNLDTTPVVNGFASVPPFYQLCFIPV

[8] = Luminescence Cell-Based Dose Retest to Confirm Inhibitors of Cancer Stem Cells. [Related pubchem assays (depositor defined):AID2717, AID2721]; assay type: functional; details: Homo sapiens
[9] = cytotoxicity in HMLE control line with eGFP shRNA, dose response, counter-screen for HMLE_sh_ECad selective toxicity project, cell-based, HMLE_sh_eGFP, luminescence (AID 463074); assay type: functional, Homo sapiens;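 further: HMLE human mammary epithelial cells expressing control shRNA against eGFP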

SMILES: CCCCCCn1ccc(=N)cc1
IC50 [1]: 13 µM (active)
AC50 [2]: 3.13 µM (active)
IC50 [3]: > 80 µM (inactive)
IC50 [4]: 15.8 µM (inactive)

AC50 [5]: inconclusive
SMILES: O=C(c1ccccc1)c1nn(-c2ccccc2)c(=O)cc1C(F)(F)F

SMILES: C=C[C@H]1C[N@@]2CC[C@H]1C[C@@H]2[C@@H](O)c1ccnc2ccc(OC)cc12 [QUINIDINE]
AC50 [6]: inactive
AC50 [7]: inactive

SMILES: COc1cc(NC(=O)c2cc(C)on2)cc(C(=O)Nc2cccc(C(F)(F)F)c2)c1
AC50 [8]: 11.6 µM (active)
AC50 [9]: 24.2 µM (active)
